Values after ≈ are worked out from the molar mass of the structure shown. Read-outs that look alike come from different tables or passages of the source.
Tests used:
BTK WT = target: T1, BTK WT (Homo sapiens, UniProt Q06187); assay: Lantha screening kinase reaction experiment (BTK WT inhibition); type: biochemical
T1 construct: purchased Invitrogen PV3363
Protocol: The compound was predissolved in 100% DMSO. 10 mM drug stock solution was obtained by dissolution at room temperature and then serially diluted with 8 vol % DMSO solution to a final concentration of 10-0.005 μM. 2.5 μl of a solution of substance to be tested and 2.5 μl of kinase (Invitrogen PV3363) diluted with the reaction buffer were added into each well of 384-well plate (Corning 3676), and then the mixture of Fluososcei-PolyGT (Invitrogen PV3610) substrate and ATP (Invitrogen PV3227) diluted with 5 μl of the reaction buffer were added to initiate the reaction. Among the wells, the kinase in the blank well was replaced with a reaction buffer and the kinase well (Enzyme) was not added with any drug. After shaking at 25° C. for 60 minutes in the dark, 10 μl of Detection Solution (mixture of Invitrogen PV3528 and EDTA, which was diluted with TR-FRET dilution buffer, the working concentration of EDTA was 5 mM, the working concentration of Lanthascreening Tb PY20 antibody was 0.2 nM) was added and shaken at room temperature for 30 minutes. The plates were read on a VictorX5 fluorescent plate reader (PerkinElmer) and the light absorption at an excitation wavelength of 340 nm and emission wavelengths of 500 nm and 520 nm was measured. […]
2. […] The half-inhibitory concentration IC50 was calculated by fitting with XLFIT 5.0 software (IDBS, UK).

βBTK Y223 = target: T2, βBTK Y223 (Homo sapiens, UniProt Q06187); assay: Intracellular βBTK Y223 phosphorylation HTRF detection in Ramos cells; type: cell-based; details: sodium pervanadate
T2 construct: endogenous in cells; host or cells: Ramos cells
T2 sequence (Q06187 whole entry): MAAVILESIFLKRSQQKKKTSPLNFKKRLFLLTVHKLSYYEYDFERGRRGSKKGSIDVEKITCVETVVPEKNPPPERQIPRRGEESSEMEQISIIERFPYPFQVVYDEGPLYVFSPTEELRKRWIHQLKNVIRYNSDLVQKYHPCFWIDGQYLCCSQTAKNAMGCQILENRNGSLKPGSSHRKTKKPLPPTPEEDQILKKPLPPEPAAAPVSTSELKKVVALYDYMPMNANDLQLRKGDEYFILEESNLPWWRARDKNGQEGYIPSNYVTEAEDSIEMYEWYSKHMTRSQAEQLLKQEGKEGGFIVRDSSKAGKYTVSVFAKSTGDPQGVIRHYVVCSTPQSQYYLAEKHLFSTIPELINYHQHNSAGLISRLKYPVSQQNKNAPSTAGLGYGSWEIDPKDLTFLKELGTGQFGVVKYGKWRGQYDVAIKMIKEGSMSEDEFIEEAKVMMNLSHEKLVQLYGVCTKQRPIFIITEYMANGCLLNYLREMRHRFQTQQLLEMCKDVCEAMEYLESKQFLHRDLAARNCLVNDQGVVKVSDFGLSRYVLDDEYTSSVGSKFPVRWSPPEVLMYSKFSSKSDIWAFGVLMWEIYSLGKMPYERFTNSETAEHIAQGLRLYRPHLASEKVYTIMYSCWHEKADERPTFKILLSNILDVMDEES
Protocol: The compound was predissolved in 100% DMSO. 10 mM drug stock solution was obtained by dissolution at room temperature and then serially diluted with 5 vol % DMSO solution to a final concentration of 3-0.0014 μM. Ramos cells were seeded into 96-well plates at a density of 4×10^5/well with 45 μl of 1640 medium containing 10% (V/V) FBS per well, and 5 μl of diluted solution of substance to be tested was added to each well, which was incubated for 1 hour at 37° C., 5% (V/V) CO2. 10 μl of sodium pervanadate dilution (diluted with 1640 without serum) was added, and to the negative control wells was added 10 μl of serum-free medium, which was incubated at 25° C. for 30 minutes on a shaker. 20 μl of lysate (4× lysate: blocked mother liquor is 25:1) was added to each well and incubated for 30 minutes at 25° C. on a shaker. It was shaken on an oscillator at 800 rpm for 1 minute. […] The plates were read on a VictorX5 fluorescent plate reader (PerkinElmer) and the light absorption at an excitation wavelength of 317 nm and emission wavelengths of 500 nm and 520 nm was measured (referring to the specification of 63ADK017PEH, Cisbio). The half-inhibitory concentration IC50 was calculated by fitting with XLFIT 5.0 software (IDBS, UK).

wild-type EGFR kinase = target: T3, wild-type EGFR kinase (Homo sapiens, UniProt P00533); assay: Wild type EGFR kinase inhibition test (z-lyte); type: biochemical
T3 construct: purchased Invitrogen PV3872
T3 sequence (P00533 668-1210 limits assumed): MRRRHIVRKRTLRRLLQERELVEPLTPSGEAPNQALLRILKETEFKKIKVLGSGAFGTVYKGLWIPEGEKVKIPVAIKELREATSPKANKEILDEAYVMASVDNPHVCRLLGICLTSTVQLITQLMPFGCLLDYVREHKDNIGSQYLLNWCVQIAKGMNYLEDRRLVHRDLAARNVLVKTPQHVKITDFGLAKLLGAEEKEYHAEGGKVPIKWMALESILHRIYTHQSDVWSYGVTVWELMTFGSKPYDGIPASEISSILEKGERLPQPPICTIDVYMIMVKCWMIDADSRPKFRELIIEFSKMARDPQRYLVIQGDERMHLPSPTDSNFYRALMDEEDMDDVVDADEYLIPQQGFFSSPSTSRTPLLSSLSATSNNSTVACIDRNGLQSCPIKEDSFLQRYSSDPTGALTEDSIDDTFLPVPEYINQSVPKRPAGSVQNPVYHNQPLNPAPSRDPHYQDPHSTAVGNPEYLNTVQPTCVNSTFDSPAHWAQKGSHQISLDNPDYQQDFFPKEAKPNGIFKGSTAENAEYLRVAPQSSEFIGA
Protocol: All the following reagents used in z-lyte test are commercially available from Invitrogen.
The inhibitory effects of compounds to be tested on wild-type EGFR kinase (Invitrogen, PV3872) were measured by z-lyte methods.
The working concentration of each component in 10 μl wild-type EGFR kinase reaction system was: 10 μM ATP, 0.8 ng/μl wild-type EGFR kinase (Invitrogen, PV3872), 2 μM Tyr04 substrate (Invitrogen, PV3193). After the compounds to be tested were added, the final concentration of DMSO was 2%.
10 mM drug stock solutions dissolved at room temperature were gradiently diluted with 4% DMSO in water to a final concentrations of 10-0.005 μM. To each well were added 2.5 μl of a solution of the compounds to be tested and 5 μl of a mixture of wild-type EGFR kinase and Tyr04 substrate diluted with a reaction buffer, and then 2.5 μl of ATP was added to initiate the reaction. […] The plates were read in a VictorX5 fluorescent microplate reader (PerkinElmer) and the light absorbance at an excitation wavelength of 405 nm and emission wavelengths of 450 nm and 520 nm was measured (For example, C3520 nm represents the reading of C3 well at 520 nm). […]
The half-inhibitory concentration IC50 was calculated by fitting with XLFIT 5.0 software (IDBS, UK).

[1] = Stability experiment (40° C./75% RH accelerated stability box and 60° C. oven); type: physicochemical
Protocol: The compound of formula X (amorphous) and crystal form A are placed in a 40° C./75% RH accelerated stability box and a 60° C. oven respectively, and take samples at fixed time points.

Solubility experiment = type: physicochemical
Protocol: About 5 mg of the compound of formula X (amorphous), crystal form I and crystal form A were weighed into each centrifuge tube, and 0.5 ml or 1 ml of corresponding medium was added, and ultrasonic vibration is conducted to make it dissolved as much as possible to form a supersaturated solution, centrifuged and the supernatant (if the solubility is high, dilute it) was taken into the liquid chromatography to calculate the solubility, 5.69 mg of the compound of formula X (amorphous) can be completely dissolved in 0.5 ml of 0.1M HCl medium, 4.24 mg of crystal form I can be completely dissolved in 1 ml of 0.1M HCl medium, the experimental results are shown in table 12: […]

[2] = Stability experiment of the crystal forms of the free base (mixed forms shaken under suspension in solvents, XRD); type: physicochemical; details: 50° C. 1 day, room temperature 1 day and 7 days
Protocol: 80 mg of the compound of formula X in amorphous form, crystal form I, crystal form II and crystal form III were weighed respectively, and mixed them in a sample bottle; 20 mg of the mixture was weighed into each centrifuge tube, a total of 15 samples (5 experimental solvents, 3 experimental conditions); Experimental solvents: acetone, acetonitrile, ethyl acetate, isopropanol and ethanol; Experimental conditions: 1 day and 7 days at room temperature, 1 day at 50° C. The experimental conditions and results are as follows: […]

[3] = Stability experiment of crystal form I (60° C. oven); type: physicochemical
Protocol: The sample is weighed and placed in an oven at 60° C., and taken for test at a fixed time point.

[4] = Thermogravimetric analysis (TGA); type: physicochemical; details: below 250° C.
From the text: TGA and DSC pattern: TGA and DSC pattern were collected on TA Q500/5000 thermogravimetric analyzer and TA Q200/2000 differential scanning calorimeter respectively.

[5] = Dynamic Vapor Sorption (DVS); type: physicochemical
Protocol: The Dynamic Vapor Sorption (DVS) curve: acquired on the DVS Intrinsic of Surface Measurement Systems. The relative humidity at 25° C. is corrected with the deliquescence points of LiCl, Mg (NO3)2 and KCl.

T1 sequence (Q06187 whole entry): as the sequence (Q06187 whole entry) above

Compound: C=CC(=O)N1CCC[C@H](Nc2nc(Nc3ccc(N4CCOCC4)cc3F)c3c(c2F)CNC3=O)C1 [(S)-6-((1-acryloylpiperidin-3-yl)amino)-7-fluoro-4-((2-fluoro-4-morpholinophenyl)amino)-1,2-dihydrogen-3H-pyrrolo[3,4-c]pyridin-3-one, reference compound]
- IC50 (BTK WT): 48 nM

Compound: C=CC(=O)N1CCC[C@@H](Nc2nc(Nc3ccc(N4CCOCC4)cc3F)c3c(c2F)CNC3=O)C1 [Compound of formula X, (R)-6-((1-acryloylpiperidin-3-yl)amino)-7-fluoro-4-((2-fluoro-4-morpholinophenyl)amino)-1,2-dihydrogen-3H-pyrrolo[3,4-c]pyridin-3-one]
- IC50 (BTK WT): 2.4 nM
- IC50 (βBTK Y223): 3 nM
- IC50 (wild-type EGFR kinase; 10 μM ATP, read-out: EGFR WT IC50): 932 nM
- selectivity BTK WT kinase over wild-type EGFR kinase (in words) (wild-type EGFR kinase; comparison of tables 14 and 16): selective inhibitory activities against BTK WT kinase
- Content % ([1]; 0 day): 100.00%
- Total Impurity % ([1]; 0 day): 0%
- chemical stability (conclusion in words) ([1]; 40° C./75% RH and 60° C., 8 days and 14 days): stable
- Content % ([1]; 40° C./75% RH, 8 days): 100.62%
- Total Impurity % ([1]; 40° C./75% RH, 8 days): 0%
- Content % ([1]; 40° C./75% RH, 14 days): 100.70%
- Total Impurity % ([1]; 40° C./75% RH, 14 days): 0%
- Content % ([1]; 60° C., 8 days): 100.82%
- Total Impurity % ([1]; 60° C., 8 days): 0%
- Content % ([1]; 60° C., 14 days): 100.81%
- Total Impurity % ([1]; 60° C., 14 days): 0%
- Solubility (Solubility experiment; 0.1M HCl medium, listed as Amorphous): ≥11380 µg/mL
- Solubility (Solubility experiment; H2O, listed as Amorphous): 11 µg/mL
- Solubility (Solubility experiment; pH 4.5 medium, listed as Amorphous): 9 µg/mL
- Solubility (Solubility experiment; pH 6.8 medium, listed as Amorphous): 7 µg/mL

Compound: C=CC(=O)N1CCC[C@@H](Nc2nc(Nc3ccc(N4CCOCC4)cc3F)c3c(c2F)CNC3=O)C1 [crystal form I, (R)-6-((1-acryloylpiperidin-3-yl)amino)-7-fluoro-4-((2-fluoro-4-morpholinophenyl)amino)-1,2-dihydrogen-3H-pyrrolo[3,4-c]pyridin-3-one]
- Solubility (Solubility experiment; 0.1M HCl medium): ≥4240 µg/mL
- Solubility (Solubility experiment; pH 4.5 medium, pH 4.5, aqueous buffer, thermodynamic from solid, pH 4.5 medium, read-out: Solubility): 8 µg/mL (≈ 16 µM)
- Solubility (Solubility experiment; pH 6.8 medium, pH 6.8, aqueous buffer, thermodynamic from solid, pH 6.8 medium, read-out: Solubility): 6 µg/mL (≈ 12 µM)
- Solubility (Solubility experiment; water, thermodynamic from solid, H2O, read-out: Solubility): 7 µg/mL (≈ 14 µM)
- form obtained from the mixture of amorphous and crystal forms I, II, III (XRD) ([2]; acetone): stable crystal form
- form obtained from the mixture of amorphous and crystal forms I, II, III (XRD) ([2]; acetonitrile): stable crystal form
- form obtained from the mixture of amorphous and crystal forms I, II, III (XRD) ([2]; ethyl acetate): stable crystal form
- form obtained from the mixture of amorphous and crystal forms I, II, III (XRD) ([2]; isopropanol): stable crystal form
- Content % ([3]; 0 day): 100.11%
- Relative substance % ([3]; 0 day): none
- Content % ([3]; 60° C., 1 week): 99.91%
- Relative substance % ([3]; 60° C., 1 week): none
- chemical stability (conclusion in words) ([3]; 60° C., 1 week and 2 weeks): stable
- crystal form stability by XRD ([3]; 60° C., 1 week and 2 weeks): has not changed
- Content % ([3]; 60° C., 2 weeks): 99.76%
- Relative substance % ([3]; 60° C., 2 weeks): none
- TGA weight loss [4]: basically no weight loss
- weight gain of moisture absorption ([5]; 90% RH, 25° C.): 0.22%
- hygroscopicity (in words) ([5]; from DVS at 90% RH): slightly hygroscopic

Compound: C=CC(=O)N1CCC[C@@H](Nc2nc(Nc3ccc(N4CCOCC4)cc3F)c3c(c2F)CNC3=O)C1 [crystal form III, (R)-6-((1-acryloylpiperidin-3-yl)amino)-7-fluoro-4-((2-fluoro-4-morpholinophenyl)amino)-1,2-dihydrogen-3H-pyrrolo[3,4-c]pyridin-3-one]
- form obtained from the mixture of amorphous and crystal forms I, II, III (XRD) ([2]; ethanol): stable crystal form
